The values that follow come from US10835513B2, “Methods and treatments for the learning and memory deficits associated with Noonan syndrome” (The Regents of the University of California, priority 2013, dated 2020).

The subject of one assay is Pyramidal neurons in CA1. Nature of the assay: Whole-cell voltage clamp recordings (AMPA:NMDA ratio, mEPSC) in AAV-PTPN11^D61G-infected hippocampi. The assay is classed as cell-based, mice. To be noted: SL327 1 μM; for AMPA:NMDA current ratio: 1 hr. As for the experimental part: FIG. 4 are graphs showing PTPN11^D61G overexpression enhances excitatory synaptic function through increased Ras-Erk signaling. Panel a) AMPA receptor-mediated currents were measured at the peak of the currents at −65 mV, and NMDA currents were measured 50 ms after onset at +40 mV. The average of 15 traces is shown. Scale, 100 pA and 40 ms. Panel b) Group data showing the increased AMPA:NMDA current ratio in AAV-PTPN11^D61G mice (1.51±0.11, n=10 cells from 5 mice) compared with AAV-GFP mice (0.96±0.05, n=10 cells from 5 mice, t-test, ***P<0.001). […] Two-way ANOVA, interaction between viral treatment and drug, F(1, 31)=10.53, **P<0.01. […] Panel c) Paired-pulse facilitation ratio is unaffected by PTPN11^D61G. There was no significant difference at 25 ms or 50 ms intervals between two groups (AAV-PTPN11^D61G, n=12 cells from 5 mice; AAV-GFP, n=11 cells from 5 mice). Repeated-measures ANOVA, F(1, 21)=0.010, P=0.921. Panel d) PTPN11^D61G overexpression increases excitatory synaptic function. mEPSC frequency was increased in AAV-PTPN11^D61G-infected mice compared with AAV-GFP mice, and was reversed by SL327 (1 μM) treatment without affecting on the AAV-GFP group. mEPSC frequency: GFP/Veh, 1.50±0.53, n=9; PTPN11^D61G/Veh, 4.64±0.94, n=9; GFP/SL327, 1.28±0.19, n=7; PTPN11^D61G/SL327, 2.02±0.32, n=9; Two-way ANOVA with viral treatment as between-subjects factor, F(1, 30)=10.31, **P<0.01. […] Two-way ANOVA with viral treatment as between-subjects factor, F(1, 30)=0.470, P=0.498. Scale, 20 pA and 200 ms. Panel e) Excitatory synaptic function is increased in Ptpn11^D61G/+ mice and reversed by SL327 treatment. mEPSC frequency was increased in Ptpn11^D61G/+ mice compared with WT littermates, and was reversed by SL327 (1 μM) treatment. mEPSC frequency: WT/Veh, 2.68±0.55, n=9; Ptpn11^D61G/+/Veh, 5.71±0.56, n=10; WT/SL327, 2.46±0.63, n=9; Ptpn11^D61G/+/SL327, 2.87±1.02, n=9; Two-way ANOVA with genotype as between-subjects factor, F(1, 33)=5.914, *P<0.05. […] Two-way ANOVA with genotype as between-subjects factor, F(1, 33)=0.418, P=0.839. Scale, 20 pA and 200 ms.
We examined the electrophysiological mechanism underlying the LTP impairment in AAV-PTPN11^D61G-infected mice. Increases in Ras signaling are known to facilitate AMPA receptor trafficking to the surface membrane^20. For example, expression of constitutively active Ras enhances AMPA receptor-mediated currents in hippocampal neurons and impairs LTP^20. […]
(§1) Whole-cell voltage clamp recordings were done with an Axopatch 200B amplifier (Axon Instrument) as previously described^29, 30. […] For mEPSC recordings, voltage clamp recordings were performed at −60 mV in the presence of 100 μM picrotoxin and 1 μM TTX. mIPSCs were measured at +10 mV in the presence of 1 mM kynurenic acid and 1 μM TTX. […]

The subject of assay [1] is pyramidal neurons of Ptpn11^D61G/+ mice. As to the kind of experiment: Whole-cell voltage clamp mEPSC recordings in Ptpn11^D61G/+ mice. The assay is classed as cell-based. Particulars: SL327 1 μM. How it is done: FIG. 4 are graphs showing PTPN11^D61G overexpression enhances excitatory synaptic function through increased Ras-Erk signaling. Panel a) AMPA receptor-mediated currents were measured at the peak of the currents at −65 mV, and NMDA currents were measured 50 ms after onset at +40 mV. The average of 15 traces is shown. Scale, 100 pA and 40 ms. Panel b) Group data showing the increased AMPA:NMDA current ratio in AAV-PTPN11^D61G mice (1.51±0.11, n=10 cells from 5 mice) compared with AAV-GFP mice (0.96±0.05, n=10 cells from 5 mice, t-test, ***P<0.001). […] Two-way ANOVA, interaction between viral treatment and drug, F(1, 31)=10.53, **P<0.01. […] Panel c) Paired-pulse facilitation ratio is unaffected by PTPN11^D61G. There was no significant difference at 25 ms or 50 ms intervals between two groups (AAV-PTPN11^D61G, n=12 cells from 5 mice; AAV-GFP, n=11 cells from 5 mice). Repeated-measures ANOVA, F(1, 21)=0.010, P=0.921. […]
as §1

Turning to `N#C/C(=C(/N)Sc1ccc(N)cc1)c1ccccc1C(F)(F)F` [SL327], the mEPSC frequency in the assay with Pyramidal neurons in CA1 (AAV-GFP mice) was 1.28±0.19; with Pyramidal neurons in CA1 (AAV-PTPN11^D61G-infected mice) it was 2.02±0.32; in assay [1] (Ptpn11^D61G/+ mice), 2.87±1.02; in assay [1] (WT littermates), 2.46±0.63. Moreover, the “AMPA:NMDA current ratio” value in the assay with Pyramidal neurons in CA1 (GFP group) came to 1.08±0.07; with Pyramidal neurons in CA1 (PTPN11^D61G group), 1.07±0.11.
